Patent US20180185408A1, “ANTIFUNGAL NYLON-3 POLYMERS AND COMBINATION THERAPY USING THEM TO TREAT FUNGAL INFECTIONS” (priority 2016, published 2018)

Test system: Cryptococcus neoformans
Test: MIC by broth microdilution (CLSI M27-A3)
Type: cell-based
Details: Cryptococcus neoformans, Resistance FLU

OC(Cn1cncn1)(Cn1cncn1)c1ccc(F)cc1F [FLC, fluconazole]
MIC50 (Cryptococcus neoformans CN2): > 64 µg/mL
MIC50 (Cryptococcus neoformans CN3): > 64 µg/mL
